Experimental findings from paper PMC10180076, “Novel Biologically Active N-Substituted Benzimidazole Derived Schiff Bases: Design, Synthesis, and Biological Evaluation” (Molecules, 2023) are described below.

pIC50: −log10 of the molar value. Converted amounts (≈) assume the structure as drawn. Where two headings read alike, the source gives them in different places. Some results are limits rather than exact numbers.

For one data set, the system named is S. aureus ATCC 29213. As to the kind of experiment: Broth microdilution MIC, S. aureus. The format is cell-based. Particulars: Staphylococcus aureus, ATCC29213; read-out: MIC against S. aureus. As to the method:
(§1) Selected bacterial strains were Gram-negative E. coli, K. pneumoniae, A. baumannii and P. aeruginosa and Gram-positive S. aureus, S. pneumoniae, and E. faecalis. The synthesized compounds were prepared as 10 mM DMSO solutions and tested in a final concentration range of 0.2–100 µM [39].
(§2) Broth microdilution testing was performed according to CLSI (Clinical Laboratory Standards Institute) guidelines. The MIC (minimal inhibitory concentration) value was defined as the last tested concentration of the compound at which there was no visible growth of bacteria. Inoculums for each microorganism were prepared using the direct colony suspension method, where broth solutions that achieved turbidity equivalent to 0.5 McFarland standard were additionally diluted 100× with Ca adjusted MH media (Becton Dickinson, Franklin Lakes, NJ, USA). All of the test plates were incubated for 16–24 h at 37 °C.
(§3) Methods for dilution of antimicrobial susceptibility tests for bacteria that grow aerobically followed M07, 11th edition, 2018, and Clinical and Laboratory Standards Institute (CLSI) guidelines. Performance standards for antimicrobial susceptibility testing followed the M100, 28th edition, 2018.
A general note: In broth dilution the organism is exposed to a series of concentrations in liquid medium.

The next data set concerns E. faecalis ATCC 29212. Kind of data set: Broth microdilution MIC, E. faecalis. Type of data set: cell-based. The following applies: Enterococcus faecalis, ATCC29212; read-out: MIC against E. faecalis. As to the method: as §1, §2, §3
Another data set relates to E. coli efflux del. Kind of data set: microbe, parasite or virus in culture. Type of data set: cell-based. How it is done:
as §1, §2, §3

In data set [1] the test system is K. pneumoniae ATCC 700603. As to the kind of experiment: Broth microdilution MIC, K. pneumoniae. The format is cell-based. The following applies: Klebsiella pneumoniae, ATCC700603; read-out: MIC against K. pneumoniae. How it is done: as §1, §2, §3
For the next data set, the system named is LN-229, glioblastoma. As to the kind of experiment: Proliferation assay (MTS, 72 h), LN-229. The format is cell-based, human. The following applies: Homo sapiens, LN-229. The procedure, abridged:
(§4)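 Test compounds were assayed at seven concentrations (100 to 0.006 µM) against cells cultured in 10% FBS-supplemented medium. After a 72 h incubation, MTS reagent was used to assess proliferation.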

In data set [2] the test system is Capan-1, pancreatic adenocarcinoma. Kind of data set: Proliferation assay (MTS, 72 h), Capan-1. Particulars: Homo sapiens, CAPAN-1. Type of data set: cell-based, human. The procedure, abridged: as §4
In data set [3] the test system is HCT-116, colorectal carcinoma. Kind of data set: Proliferation assay (MTS, 72 h), HCT-116. The following applies: Homo sapiens, HCT-116. Type of data set: cell-based, human. In short, it runs like this:
(§5)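 Adherent HCT-116 was plated and left overnight before compound addition, whereas suspension lines (HL-60, Z-138, DND-41) were seeded straight into plates already holding compound. Seven concentrations from 100 to 0.006 µM were tested, with 72 h exposure in medium with 10% FBS and MTS read-out; two independent experiments.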

A further data set deals with NCI-H460, lung carcinoma. As to the kind of experiment: Proliferation assay (MTS, 72 h), NCI-H460. Particulars: Homo sapiens, NCI-H460. The format is cell-based, human. The procedure, abridged:
as §4

In data set [4] the test system is DND-41, acute lymphoblastic leukemia. As to the kind of experiment: Proliferation assay (MTS, 72 h), DND-41. Particulars: Homo sapiens, DND41. Type of data set: cell-based, human. The procedure, abridged:
as §5

The subject of data set [5] is HL-60, acute myeloid leukemia. Kind of data set: Proliferation assay (MTS, 72 h), HL-60. Type of data set: cell-based, human. The following applies: Homo sapiens, HL-60. In short, it runs like this: as §5
For data set [6], the system named is K-562, chronic myeloid leukemia. As to the kind of experiment: Proliferation assay (MTS, 72 h), K-562. The format is cell-based, human. The following applies: Homo sapiens, K562. The procedure, abridged: as §4
The test system of data set [7] is Z-138, non-Hodgkin lymphoma. As to the kind of experiment: Proliferation assay (MTS, 72 h), Z-138. The format is cell-based, human. The following applies: Homo sapiens, Z-138. In short, it runs like this: as §5
Data set [8] relates to human coronavirus HCoV-229E. Kind of data set: organism not typed. Particulars: HEL 299 cells, 100 CCID50, MTS; read-out: Antiviral Activity (EC50/μM) HCoV 229E HEL 299. The format is cell-based.
For data set [9], the system named is human coronavirus HCoV-OC43. Kind of data set: microbe, parasite or virus in culture. Particulars: Betacoronavirus 1, OC43; HEL 299 cells, 100 CCID50, MTS; read-out: Antiviral Activity (EC50/μM) HCoV OC43 HEL 299. Type of data set: cell-based.
The test system of data set [10] is human coronavirus HCoV-NL63. As to the kind of experiment: Antiviral CPE reduction assay, HCoV-NL63 in Huh-7. The following applies: Huh-7 cells, 100 CCID50, MTS. The format is cell-based.
The test system of data set [11] is influenza A/H1N1 (A/Ned/378/05). As to the kind of experiment: Antiviral CPE reduction assay, influenza A/H1N1 in MDCK. Particulars: Influenza A virus, MDCK cells, 100 CCID50, MTS. Type of data set: cell-based.
For data set [12], the system named is influenza A/H3N2 (A/HK/7/87). Kind of data set: Antiviral CPE reduction assay, influenza A/H3N2 in MDCK. Type of data set: cell-based. Particulars: Influenza A virus, MDCK cells, 100 CCID50, MTS.
Data set [13] concerns influenza B (B/Ned/537/05). As to the kind of experiment: Antiviral CPE reduction assay, influenza B in MDCK. The format is cell-based. The following applies: Influenza B virus; MDCK cells, 100 CCID50, MTS.
The subject of data set [14] is respiratory syncytial virus A (Long). As to the kind of experiment: Antiviral CPE reduction assay, RSV A in HEL 299. The format is cell-based. Particulars: human respiratory syncytial virus; HEL 299 cells, 100 CCID50, MTS.
The subject of data set [15] is herpes simplex virus-1 (HSV-1 KOS). Kind of data set: Antiviral CPE reduction assay, HSV-1 KOS in HEL 299. The following applies: Human alphaherpesvirus 1; HEL 299 cells, 100 CCID50, MTS. The format is cell-based.
Data set [16] concerns yellow fever virus (YFV 17D). Kind of data set: microbe, parasite or virus in culture. The format is cell-based. The following applies: Huh-7, read-out: Antiviral Activity (EC50/μM) YFV 17D Huh-7.
The next data set relates to Zika virus (Mr776). As to the kind of experiment: Antiviral CPE reduction assay, Zika virus in Huh-7. The format is cell-based. The following applies: Huh-7 cells, 100 CCID50, MTS.
The next data set deals with sindbis virus. As to the kind of experiment: Antiviral CPE reduction assay, Sindbis virus in Huh-7. Type of data set: cell-based. Particulars: Huh-7 cells, 100 CCID50, MTS.
The next data set concerns human cancer cell lines. Kind of data set: Proliferation assay (MTS, 72 h), range over several cancer cell lines. Type of data set: cell-based. The text has this:
Human cancer cells used in this manuscript, namely Capan-1, HCT-116, NCI-H460, LN-229, HL-60, K-562, and Z-138, were acquired from the American Type Culture Collection (ATCC, Manassas, VA, USA), while the DND-41 cell line was purchased from the Deutsche Sammlung von Mikroorganismen und Zellkulturen (DSMZ Leibniz-Institut, Braunschweig, Germany). Culture media were purchased from Gibco Life Technologies, Merelbeke, Belgium, and supplemented with 10% fetal bovine serum (HyClone, Cytiva, Marlborough, MA, USA). Vincristine and docetaxel, which were used as the reference inhibitors, were purchased from Selleckchem (Munich, Germany). Stock solutions were prepared in DMSO.
Adherent cell lines LN-229, HCT-116, and NCI-H460 and Capan-1 cells were seeded at a density between 500 and 1500 cells per well, in 384-well tissue culture plates (Greiner, Kremsmünster, Austria). […]
Suspension cell lines HL-60, K-562, Z-138, and DND-41 were seeded at densities ranging from 2500 to 5500 cells per well in 384-well culture plates containing the test compounds at the same concentration points. The cells were incubated for 72 h with the compounds and were then analyzed using the CellTiter 96® AQueous One Solution Cell Proliferation Assay (MTS) reagent (Promega, Madison, WI, USA) according to the manufacturer’s instructions. […]

The nature of data set [17]: in vitro. The following applies: human.
The nature of data set [18]: in vitro. Particulars: human. The source holds these as a separate data set.
A short description of data set [19]: in vitro. The following applies: dog.

For orientation: IC50 means the concentration that gives 50% inhibition. High values mean weaker potency in that assay, low ones greater potency in that assay. As to `CCCCCCn1c(N)nc2ccccc21` [Compound 23, 2-Amino-1-hexylbenzimidazole], the MIC in the data set on S. aureus ATCC 29213 was 16 µM (≈ 3.48 µg/mL); in the data set with E. faecalis ATCC 29212, 32 µM (≈ 6.95 µg/mL); in the data set on E. coli efflux del (Escherichia coli, read-out: MIC against E. coli efflux dell) it was 32 µM (≈ 6.95 µg/mL); in data set [1] it was 32 µM (≈ 6.95 µg/mL). Moreover, in the data set with E. coli efflux del (Table 2 prints no unit, μM for compounds, antibiotics tested at 0.125–64 µg/mL), the “MIC E. coli efflux del” value is 32. The IC50 worked out at 45.2 µM in the data set on LN-229, glioblastoma; 46.5 µM in data set [2]; 57.4 µM in data set [3]; 60.2 µM in the data set on NCI-H460, lung carcinoma; 47.7 µM in data set [4]; 44.9 µM in [5]. The values for the IC50 in data set [6] and in data set [7] were 46.7 µM and 44.7 µM, respectively.

In general, pIC50 refers to the IC50 on a negative log10 scale, so that one unit is a factor of ten. The melting point is the temperature of the solid-liquid transition. Take `CCN(CC)c1ccc(/C=N/c2nc3ccc(C#N)cc3n2CC(C)C)c(O)c1` [Compound 31, (E)-2-((4-(Diethylamino)-2-hydroxybenzylidene)amino)-1-isobutyl-1H-benzo[d]imidazole-6-carbonitrile]: the melting point was 205 to 208 °C. In addition, in [8], the EC50 is over 100 µM. For the same compound, the EC50 in [9] is over 100 µM. In [10], this compound returned an EC50 of 32 µM. Moreover, the EC50 in data set [11] was over 100 µM. For the same compound, the EC50 in data set [12] is over 100 µM. In data set [13], this compound yielded an EC50 of over 100 µM. In [14], this compound showed an EC50 of over 100 µM. In [15], this compound returned an EC50 of over 100 µM. Moreover, the EC50 in data set [16] is over 100 µM. In the data set with Zika virus (Mr776), this compound yielded an EC50 of over 100 µM. In the data set on sindbis virus, this compound registered an EC50 of over 100 µM. The compound also displayed an IC50 in the data set on LN-229, glioblastoma of over 100 µM. The compound further gave an IC50 in [2] of 32.8 µM. Also, in [3], the 50% inhibitory concentration (IC50) was over 100 µM. The same compound showed an IC50 with NCI-H460, lung carcinoma of over 100 µM. In addition, in data set [4], 34.4 µM corresponded to half-maximal inhibition (IC50). In data set [5], this compound returned a 50% inhibitory concentration (IC50) of 47.6 µM. Also, the IC50 in data set [6] is over 100 µM. Also, the IC50 in [7] is over 100 µM. In addition, the negative logarithm of the IC50 (pIC50) with human cancer cell lines (three cancer cell types, read-out: IC50, range over three cancer cell types) was 4.32 to 4.48. In addition, the CC50 in “in vitro [17]” was over 100 µM. The compound also came in with a CC50 in the data set “in vitro [18]” of 85.7 µM. In the data set “in vitro [19]”, this compound had a CC50 of 1.3 µM.

`CCN(CC)c1ccc(/C=N/c2nc3ccccc3n2-c2ccccc2)c(O)c1` [Compound 40, (E)-5-(Diethylamino)-2-(((1-phenyl-1H-benzo[d]imidazol-2-yl)imino)methyl)phenol] had a melting point of 197 to 201 °C. This compound came in with an IC50 in the data set with LN-229, glioblastoma of 21.5 µM. Also, in data set [2], the midpoint of inhibition, the IC50, lay at 2.4 µM. In data set [3], this compound returned an IC50 of 9.6 µM. In addition, in the data set on NCI-H460, lung carcinoma, inhibition was half-maximal at 43.7 µM (IC50). Further, in data set [4], the midpoint of inhibition, the IC50, lay at 2.2 µM. Besides, in [5], the IC50 was 1.1 µM. In addition, half-maximal inhibition in data set [6] (IC50) required 12.9 µM. Moreover, in [7], the midpoint of inhibition, the IC50, lay at 4.4 µM. The pIC50 in the data set with human cancer cell lines (Capan-1, DND-41, HL-60 and Z-138 cancer cell lines, read-out: IC50, range over several cancer cell lines) is 5.36 to 5.96.
